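Briefly, cells in 96-well plates were exposed to five compound concentrations for 48 h, and endpoints were estimated by linear interpolation. The concentration for 50% growth inhibition is given as GI50.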 Active and inactive are the calls of the source. Rule as the data show it: active = GI50 up to about 1.1 µM and inactive = higher.
Tests used:
Test in all cases: NCI-60 cell line screen, 48 h
Hs-578T = system: Hs-578T
HCT-116 = system: HCT-116
UO-31 = system: UO-31
NCI-H226 = system: NCI-H226
SF-539 = system: SF-539
KM12 = system: KM12
RXF 393 = system: RXF 393
SNB-75 = system: SNB-75
SR = system: SR
Malme-3M = system: Malme-3M
UACC-257 = system: UACC-257
SK-OV-3 = system: SK-OV-3
SK-MEL-5 = system: SK-MEL-5
CAKI-1 = system: CAKI-1
RPMI-8226 = system: RPMI-8226
TK-10 = system: TK-10
NCI/ADR-RES = system: NCI/ADR-RES
M14 = system: M14
ACHN = system: ACHN

Structure (SMILES) | GI50 (Hs-578T) | GI50 (HCT-116) | GI50 (UO-31) | GI50 (NCI-H226) | GI50 (SF-539) | GI50 (KM12) | GI50 (RXF 393) | GI50 (SNB-75) | GI50 (SR) | GI50 (Malme-3M) | GI50 (UACC-257) | GI50 (SK-OV-3) | GI50 (SK-MEL-5) | GI50 (CAKI-1) | GI50 (RPMI-8226) | GI50 (TK-10) | GI50 (NCI/ADR-RES) | GI50 (M14) | GI50 (ACHN)
Cc1noc(NS(=O)(=O)c2ccc(NC(=O)c3ccc4[nH]c5ccccc5c(=O)c4c3)cc2)c1C | 42 µM (inactive) | 47.9 µM (inactive) | 75 µM (inactive) | > 100 µM (inactive) | 20.6 µM (inactive) | 36.1 µM (inactive) | 36.4 µM (inactive) | 32.1 µM (inactive) | 29.1 µM (inactive) | 27 µM (inactive) | > 100 µM (inactive) | 61.9 µM (inactive) | 44 µM (inactive) | > 100 µM (inactive) | 50.4 µM (inactive) | > 100 µM (inactive) | > 100 µM (inactive) | > 100 µM (inactive) | 53.8 µM (inactive)
Cc1ccc(C(O)c2cnc(C)n2Cc2ccccc2)cc1 (configuration not stated) | > 100 µM (inactive) | > 100 µM (inactive) | > 100 µM (inactive) | > 100 µM (inactive) | > 100 µM (inactive) | > 100 µM (inactive) | > 100 µM (inactive) | > 100 µM (inactive) | > 100 µM (inactive) | > 100 µM (inactive) | 67.1 µM (inactive) | > 100 µM (inactive) | 79.1 µM (inactive) | > 100 µM (inactive) | 46 µM (inactive) | > 100 µM (inactive) | 85.3 µM (inactive) | > 100 µM (inactive) | > 100 µM (inactive)
NC(=O)[C@H](Cc1ccc(O)cc1)NC1=C(Cl)C(=O)c2c(O)ccc(O)c2C1=O | 3.71 µM (inactive) | 1.57 µM (inactive) | 4 µM (inactive) | > 10 µM (inactive) | 2.17 µM (inactive) | 2.67 µM (inactive) | 3.52 µM (inactive) | 4.93 µM (inactive) | 1.34 µM (inactive) | 1.96 µM (inactive) | 3.15 µM (inactive) | > 10 µM (inactive) | 1.47 µM (inactive) | 2.37 µM (inactive) | 2.25 µM (inactive) | 2.72 µM (inactive) | 2.8 µM (inactive) | 3.14 µM (inactive) | 2.67 µM (inactive)
COc1cc2c(cc1Cl)[n+]([O-])c(C#N)c(N1CCN(c3ccc([N+](=O)[O-])cc3)CC1)[n+]2[O-] | 10.3 µM (inactive) | 24 µM (inactive) | 0.938 µM (active) | > 100 µM (inactive) | 10.8 µM (inactive) | 21.9 µM (inactive) | 27 µM (inactive) | 17.4 µM (inactive) | 2.86 µM (inactive) | 14.8 µM (inactive) | 14.8 µM (inactive) | 23.9 µM (inactive) | 16.6 µM (inactive) | 48.5 µM (inactive) | 0.631 µM (active) | 27.3 µM (inactive) | 15.5 µM (inactive) | 17.5 µM (inactive) | 14.7 µM (inactive)
O=C(/C(Cl)=C/c1ccccc1)c1ccccc1 | 3.54 µM (inactive) | 1.21 µM (inactive) | 2.32 µM (inactive) | 7.26 µM (inactive) | 3.03 µM (inactive) | 4.08 µM (inactive) | 2.46 µM (inactive) | 13.2 µM (inactive) | 1.85 µM (inactive) | 2 µM (inactive) | 6.9 µM (inactive) | 19.7 µM (inactive) | 3.11 µM (inactive) | 1.7 µM (inactive) | 2.33 µM (inactive) | 3.21 µM (inactive) | 3.55 µM (inactive) | 2.28 µM (inactive) | 2.24 µM (inactive)
N#Cc1cccc2c1Sc1ccccc1N2 | 0.397 µM (active) | 31.3 µM (inactive) | 27.1 µM (inactive) | 29.3 µM (inactive) | 20.4 µM (inactive) | 32.7 µM (inactive) | 3.7 µM (inactive) | 1.77 µM (inactive) | 33.7 µM (inactive) | 41.6 µM (inactive) | 35.1 µM (inactive) | 38.9 µM (inactive) | 0.553 µM (active) | 32.2 µM (inactive) | 27.7 µM (inactive) | 17.1 µM (inactive) | 31.3 µM (inactive) | 25.8 µM (inactive) | 33.4 µM (inactive)
CCOC(=O)[C@@H]1[C@@H]2NC(=O)N[C@@]1(C)Oc1ccccc12 | > 100 µM (inactive) | > 100 µM (inactive) | > 100 µM (inactive) | > 100 µM (inactive) | > 100 µM (inactive) | > 100 µM (inactive) | > 100 µM (inactive) | > 100 µM (inactive) | > 100 µM (inactive) | > 100 µM (inactive) | > 100 µM (inactive) | > 100 µM (inactive) | > 100 µM (inactive) | > 100 µM (inactive) | > 100 µM (inactive) | > 100 µM (inactive) | > 100 µM (inactive) | > 100 µM (inactive) | > 100 µM (inactive)
O=C1C(O)=C(C(C2=C(O)C(=O)c3ccccc3C2=O)c2ccc(Cl)cc2)C(=O)c2ccccc21 | 14.7 µM (inactive) | 6.34 µM (inactive) | 10.1 µM (inactive) | 28.9 µM (inactive) | 18 µM (inactive) | 8.97 µM (inactive) | 7.13 µM (inactive) | 2.5 µM (inactive) | 3.18 µM (inactive) | 5.25 µM (inactive) | 5 µM (inactive) | 17.7 µM (inactive) | 6.67 µM (inactive) | 9.4 µM (inactive) | 9.86 µM (inactive) | 14.7 µM (inactive) | 11.6 µM (inactive) | 9.59 µM (inactive) | 6.46 µM (inactive)

— ChEMBL document CHEMBL1201862, “PubChem BioAssay data set” (2004)
